According to publication PMC7327383, “The affinity and selectivity of α‐adrenoceptor antagonists, antidepressants, and antipsychotics for the human α1A, α1B, and α1D‐adrenoceptors” (Pharmacology Research & Perspectives, 2020):
Read-outs that look alike come from different tables or passages of the source.

Columns and labels:
[1] = target: T1, full-length human α1D-adrenoceptor (Homo sapiens, UniProt P25100); assay: [3H]prazosin whole-cell competition binding, CHO-α1D cells; details: for Selectivity ratio α1B vs α1D / Selectivity ratio α1A vs α1D: ratio of KD values, higher α1D affinity (site 1 KD)
T1 sequence (P25100 1-572): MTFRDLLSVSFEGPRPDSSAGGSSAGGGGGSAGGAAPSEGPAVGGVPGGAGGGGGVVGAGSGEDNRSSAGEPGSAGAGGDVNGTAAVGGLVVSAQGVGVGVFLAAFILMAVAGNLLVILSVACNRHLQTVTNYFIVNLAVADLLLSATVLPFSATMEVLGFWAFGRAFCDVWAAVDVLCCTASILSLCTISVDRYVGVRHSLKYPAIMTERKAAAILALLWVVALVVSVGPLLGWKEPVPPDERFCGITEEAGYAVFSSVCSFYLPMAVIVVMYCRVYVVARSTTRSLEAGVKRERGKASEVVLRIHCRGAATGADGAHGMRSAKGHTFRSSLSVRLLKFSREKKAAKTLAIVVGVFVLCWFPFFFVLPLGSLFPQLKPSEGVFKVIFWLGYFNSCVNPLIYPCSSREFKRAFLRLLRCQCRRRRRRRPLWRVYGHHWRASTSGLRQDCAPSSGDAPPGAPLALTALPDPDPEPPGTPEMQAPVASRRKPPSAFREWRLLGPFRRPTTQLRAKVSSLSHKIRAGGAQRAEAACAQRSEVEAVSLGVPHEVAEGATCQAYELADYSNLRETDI

[2] = target: T2, human α1B-adrenoceptor (Homo sapiens, UniProt P35368); assay: [3H]prazosin whole-cell competition binding, CHO-α1B cells; details: for Selectivity ratio α1B vs α1D: ratio of KD values, higher α1B affinity, 1.0 under vs = none; for Log KD α1B (apparent): app: top concentration inhibited most but not all specific binding, curve extrapolated; for Kd: read-out: Log KD α1B (converted)
T2 construct: CHO cells stably expressing either the full‐length human α1A, α1B, or α1D‐adrenoceptor
T2 sequence (P35368 1-520): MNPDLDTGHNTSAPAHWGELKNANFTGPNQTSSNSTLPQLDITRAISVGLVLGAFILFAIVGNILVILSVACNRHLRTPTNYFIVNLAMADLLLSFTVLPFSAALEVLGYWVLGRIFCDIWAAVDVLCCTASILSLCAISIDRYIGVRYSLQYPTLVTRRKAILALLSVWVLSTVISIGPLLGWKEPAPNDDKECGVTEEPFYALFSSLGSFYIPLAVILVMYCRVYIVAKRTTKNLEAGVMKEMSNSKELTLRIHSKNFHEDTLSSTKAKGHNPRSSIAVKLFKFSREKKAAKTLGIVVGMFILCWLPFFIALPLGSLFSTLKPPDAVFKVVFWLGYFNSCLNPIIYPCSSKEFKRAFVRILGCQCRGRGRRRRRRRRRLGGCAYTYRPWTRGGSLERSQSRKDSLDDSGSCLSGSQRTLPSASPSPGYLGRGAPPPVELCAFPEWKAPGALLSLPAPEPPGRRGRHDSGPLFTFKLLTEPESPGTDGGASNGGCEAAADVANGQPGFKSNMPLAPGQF

[3] = target: T3, human α1A-adrenoceptor (Homo sapiens, UniProt P35348); assay: [3H]prazosin whole-cell competition binding, CHO-α1A cells; details: for Selectivity ratio α1A vs α1D / Selectivity ratio α1A vs α1B: ratio of KD values, 1.0 under vs = none; for Selectivity ratio α1A vs α1D: higher α1A affinity; for Selectivity ratio α1A vs α1B: printed under α1A = higher α1A affinity; for Kd: read-out: Log KD α1A (converted)
T3 construct: CHO cells stably expressing either the full‐length human α1A, α1B, or α1D‐adrenoceptor
T3 sequence (P35348 1-466): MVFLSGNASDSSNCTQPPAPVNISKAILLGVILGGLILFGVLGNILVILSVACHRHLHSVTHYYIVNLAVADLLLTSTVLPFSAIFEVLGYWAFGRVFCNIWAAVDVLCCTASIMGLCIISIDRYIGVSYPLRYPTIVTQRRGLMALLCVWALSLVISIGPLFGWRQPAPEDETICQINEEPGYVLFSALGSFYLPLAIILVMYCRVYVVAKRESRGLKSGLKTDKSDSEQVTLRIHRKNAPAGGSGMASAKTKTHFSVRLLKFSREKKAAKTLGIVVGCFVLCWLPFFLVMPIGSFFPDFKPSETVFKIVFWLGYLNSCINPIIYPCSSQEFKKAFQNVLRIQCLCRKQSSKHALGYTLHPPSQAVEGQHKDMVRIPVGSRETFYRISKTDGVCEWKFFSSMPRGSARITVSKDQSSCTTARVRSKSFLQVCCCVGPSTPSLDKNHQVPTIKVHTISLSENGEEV

[4] = single-component inhibition curve, given as log KD (negative), mean ± SE mean
[5] = app: top concentration inhibited most but not all specific binding, curve extrapolated
[6] = ratio, 1 = no selectivity for a subtype over another
[7] = Log KD α1D, single-component inhibition curve, given as log KD (negative), mean ± SE mean
[8] = log KD from 3H-prazosin whole cell binding, CHO cells, mean ± s.e.mean

Structure (SMILES): O=C1c2ccccc2CCC1CNCCc1ccc(O)cc1 (stereo not drawn) [HEAT]
- Log KD α1D site 1 ([1]; high-affinity component of two-component curve, control, used for selectivity): −8.11 ± 0.18
- Log KD α1D site 2 ([1]; low-affinity component of two-component curve, control): −5.15 ± 0.26
- % site 1 α1D ([1]; percentage of inhibition through first component, control): 64.1 ± 4.1% site 1
- % site 1 α1D ([1]; two-component inhibition curve, proportion of site 1): -8.11 ± 0.18 -5.15 ± 0.26 64.1 ± 4.1% site 1
- Selectivity ratio α1B vs α1D [2]: 1.2 fold
- Log KD α1B [2, 4]: −8.04 ± 0.04
- Selectivity ratio α1A vs α1D [3]: 2.9 fold
- Selectivity ratio α1A vs α1B [3]: 3.4 fold
- Log KD α1A [3, 4]: −8.57 ± 0.06

Structure (SMILES): CN1[C@H]2C[C@H](OC(=O)[C@H](CO)c3ccccc3)C[C@@H]1[C@@H](O)C2 [Anisodamine]
- Log KD α1D [1, 4]: −4.21 ± 0.05
- Log KD α1B (apparent) [2]: −3.45 ± 0.04^app
- Log KD α1A [3, 4]: −5.21 ± 0.03

Structure (SMILES): COc1ccc(NC(=O)N2CCc3c2ccc2ccccc32)cc1N1CCN(C)CC1 [S32212]
- Log KD α1D (apparent) [1, 5]: −5.69 ± 0.13^app
- Selectivity ratio α1B vs α1D [1]: 5.9 fold
- Log KD α1B (apparent) [2]: −4.92 ± 0.02^app
- selectivity α1B vs α1D [2, 6]: 5.9
- Selectivity ratio α1A vs α1D [3]: 1.6 fold
- Selectivity ratio α1A vs α1B [3]: 9.5 fold
- Log KD α1A [3, 4]: −5.90 ± 0.06

Structure (SMILES): COc1ccccc1N1CCN(CCCNc2c(C)c(=O)n(C)c(=O)n2C)CC1 [5-methyl-urapidil]
- Log KD α1D [1]: -5.61 ± 0.07
- Log KD α1B [2]: -6.06 ± 0.04
- selectivity α1B vs α1D [2]: 2.8
- Log KD α1A [3]: -8.23 ± 0.05
- selectivity α1A vs 1D [3]: 417
- selectivity α1A vs α1B [3]: 148

Structure (SMILES): CCN1CCCC1CNC(=O)c1cc(S(=O)(=O)CC)c(N)cc1OC (stereo not drawn) [Amisulpiride]
- Log KD α1D (apparent) [1, 5]: −4.55 ± 0.08^app
- Log KD α1B: result in words ([2]; no inhibition of [3H]prazosin binding at maximum concentration possible): No binding to 100 µmol/L
- binding at α1B ([2]; result in words in the Log KD α1B column): No binding to 100µM
- binding at α1B (result in words) ([2]; up to the maximum concentration): No binding to 100µM
- Log KD α1A [3, 4]: −5.05 ± 0.04

Structure (SMILES): COc1ccccc1N1CCN(CC(O)COc2cccc3ccccc23)CC1 (stereo not drawn) [Naftopidil]
- Kd [1, 7]: 87.1 nM
- Selectivity ratio α1B vs α1D [1]: 1.7 fold
- selectivity α1B vs α1D [2, 6]: 1.7
- Kd [2, 4]: 151 nM
- Selectivity ratio α1A vs α1D [3]: 8.1 fold
- Selectivity ratio α1A vs α1B [3]: 14 fold
- Kd [3, 4]: 10.7 nM

Structure (SMILES): CCS(=O)(=O)N1CCC[C@@H]2CN3CCc4cc(OC)ccc4[C@@H]3C[C@@H]21 [RS79948]
- Selectivity ratio α1A vs α1D [1]: 2.1 fold
- Selectivity ratio α1B vs α1D [1]: 12 fold
- Log KD α1D [1, 4]: −6.07 ± 0.11
- selectivity α1B vs α1D [2, 6]: 12
- Log KD α1B [2, 4]: −4.99 ± 0.05
- Selectivity ratio α1A vs α1B [3]: 5.8 fold
- selectivity α1A vs 1D [3, 6]: 2.1
- Log KD α1A [3, 4]: −5.75 ± 0.05

Structure (SMILES): Cn1cc(C(F)(F)F)nc1-c1ccc(OCC(O)CNCCOc2ccc(O)c(C(N)=O)c2)cc1 (stereo not drawn) [CGP20712A]
- Kd ([1]; Log KD α1D (apparent), app: top concentration inhibited most but not all specific binding, curve extrapolated): 11000 nM
- Selectivity ratio α1A vs α1D [1]: 1.1 fold
- Selectivity ratio α1B vs α1D [1]: >9.1 fold
- IC50 ([2]; read-out: Log IC50 α1B (converted)): > 100000 nM
- Selectivity ratio α1A vs α1B [3]: >8.5 fold
- Kd [3, 4]: 11700 nM

Structure (SMILES): OCCN1CCN(CCC=C2c3ccccc3Sc3ccc(C(F)(F)F)cc32)CC1 [Flupenthixol]
- Kd [1, 7]: 110 nM
- Selectivity ratio α1B vs α1D [2]: 3.2 fold
- Kd [2, 4]: 33.9 nM
- Selectivity ratio α1A vs α1D [3]: 25 fold
- Selectivity ratio α1A vs α1B [3]: 7.6 fold
- Kd [3, 4]: 4.47 nM

Structure (SMILES): COC1(C2=NCCN2)COc2ccccc2O1 (stereo not drawn) [RX 821002]
- Log KD α1D [1, 8]: -5.31 ± 0.13
- Log KD α1B [2, 8]: -5.46 ± 0.06
- selectivity α1B vs α1D [2, 6]: 1.4
- Log KD α1A [3, 8]: -6.51 ± 0.09
- selectivity α1A vs 1D [3, 6]: 16
- selectivity α1A vs α1B [3, 6]: 11
